The structures appear in SMILES notation. *1 amine or outer side, *2 acyl side, *3 side chain or, on linkers, in order; H or OH if unused. Where a SMILES comes first, the peptide text is derived from it. Side-chain parts run from the residue outwards. [ ]: non-standard residue; d: D form. The star is where a group is joined. C20 diacid = O=C(O)CCCCCCCCCCCCCCCCCCC(=O)*; C18 diacid = O=C(O)CCCCCCCCCCCCCCCCC(=O)*; C16 diacid = O=C(O)CCCCCCCCCCCCCCC(=O)*; γGlu = O=C(O)[C@H](CCC(=O)[*:2])N[*:1]; Desaminohistidyl = O=C(CCc1c[nH]cn1)*; Trx = NC[C@H]1CC[C@H](C(=O)O)CC1; NTA = O=C(O)CN(CC(=O)O)CC(=O)*; Dap = NC[C@H](N)C(=O)O; AEEA = NCCOCCOCC(=O)O; Aib = CC(C)(N)C(=O)O Where only a bound is given, the exact number is not on record here.

Sequence of human serum albumin (HSA) (P02768 25-609): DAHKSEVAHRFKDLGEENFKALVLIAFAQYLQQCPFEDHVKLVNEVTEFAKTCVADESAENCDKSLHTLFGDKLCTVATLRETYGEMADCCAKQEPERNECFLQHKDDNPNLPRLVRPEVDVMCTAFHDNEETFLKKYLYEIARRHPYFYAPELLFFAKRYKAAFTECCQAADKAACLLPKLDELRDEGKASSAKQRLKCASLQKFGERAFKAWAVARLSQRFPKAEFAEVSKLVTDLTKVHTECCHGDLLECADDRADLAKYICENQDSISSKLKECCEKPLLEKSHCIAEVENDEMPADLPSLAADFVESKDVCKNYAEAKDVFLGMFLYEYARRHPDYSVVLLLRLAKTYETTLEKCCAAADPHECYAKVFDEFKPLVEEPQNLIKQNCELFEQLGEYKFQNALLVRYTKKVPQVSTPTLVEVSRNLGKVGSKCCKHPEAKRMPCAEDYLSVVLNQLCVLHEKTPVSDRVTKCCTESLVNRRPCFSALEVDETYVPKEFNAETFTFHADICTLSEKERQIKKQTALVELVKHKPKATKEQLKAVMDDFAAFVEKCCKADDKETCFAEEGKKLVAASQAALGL

The first assay addresses human serum albumin (HSA) (Homo sapiens, UniProt P02768). In words: Albumin binding affinity, competition scintillation proximity assay (SPA).
Conditions: not given
In general terms: Scintillation proximity formats need no separation of bound from free tracer.
Regarding `CC[C@H](C)[C@H](NC(=O)[C@H](Cc1ccccc1)NC(=O)[C@H](CCC(=O)O)NC(=O)[C@H](CCCNC(=N)N)NC(=O)[C@H](C)NC(=O)[C@H](C)NC(=O)[C@H](CCC(N)=O)NC(=O)[C@H](CCC(=O)O)NC(=O)[C@H](CCC(=O)O)NC(=O)[C@H](CC(C)C)NC(=O)[C@H](Cc1ccc(O)cc1)NC(=O)[C@H](CO)NC(=O)[C@H](CO)NC(=O)[C@@H](NC(=O)[C@H](CC(=O)O)NC(=O)[C@H](CO)NC(=O)[C@@H](NC(=O)[C@H](Cc1ccccc1)NC(=O)[C@@H](NC(=O)CNC(=O)[C@H](CCC(=O)O)NC(=O)[C@H](C)NC(=O)CCc1c[nH]cn1)[C@@H](C)O)[C@@H](C)O)C(C)C)C(=O)N[C@@H](CCC(=O)O)C(=O)N[C@@H](Cc1c[nH]c2ccccc12)C(=O)N[C@@H](CC(C)C)C(=O)N[C@H](C(=O)N[C@@H](CCCNC(=N)N)C(=O)NCC(=O)N[C@@H](CCCCNC(=O)COCCOCCNC(=O)COCCOCCNC(=O)CC[C@H](NC(=O)CCCCCCCCCCCCCCC(=O)O)C(=O)O)C(=O)NCC(=O)N[C@@H](CCC(=O)O)C(=O)N[C@@H](CCCCN)C(=O)O)C(C)C` [Example 30, N-epsilon36-[2-(2-{2-[2-(2-{2-[(S)-4-carboxy-4-(15-carboxy-pentadecanoylamino)-butyrylamino]-ethoxy}-ethoxy)-acetylamino]-ethoxy}-ethoxy)-acetyl] [desaminoHis7, Glu22, Arg26, Glu30, Arg34, Lys36]GLP-1-(7-37)-Glu-Lys peptide] (Desaminohistidyl-AEGTFTSDVSSYLEEQAAREFIEWLVRGK([AEEA-AEEA-γGlu-C16 diacid])GEK-OH), the EC50 was greater than 2000 nM.

`CC[C@H](C)[C@H](NC(=O)[C@H](Cc1ccccc1)NC(=O)[C@H](CCC(=O)O)NC(=O)[C@H](CCCNC(=N)N)NC(=O)[C@H](C)NC(=O)[C@H](C)NC(=O)[C@H](CCC(N)=O)NC(=O)[C@H](CCC(=O)O)NC(=O)[C@H](CCC(=O)O)NC(=O)[C@H](CC(C)C)NC(=O)[C@H](Cc1ccc(O)cc1)NC(=O)[C@H](CO)NC(=O)[C@H](CO)NC(=O)[C@@H](NC(=O)[C@H](CC(=O)O)NC(=O)[C@H](CO)NC(=O)[C@@H](NC(=O)[C@H](Cc1ccccc1)NC(=O)[C@@H](NC(=O)CNC(=O)[C@H](CCC(=O)O)NC(=O)C(C)(C)NC(=O)[C@@H](N)Cc1c[nH]cn1)[C@@H](C)O)[C@@H](C)O)C(C)C)C(=O)N[C@@H](C)C(=O)N[C@@H](Cc1c[nH]c2ccccc12)C(=O)N[C@@H](CC(C)C)C(=O)N[C@H](C(=O)N[C@@H](CCCNC(=N)N)C(=O)NC(C)(C)C(=O)N[C@@H](CCCNC(=N)N)C(=O)N[C@@H](CCCCNC(=O)COCCOCCNC(=O)COCCOCCNC(=O)CC[C@H](NC(=O)CCCCCCCCCCCCCCCCC(=O)O)C(=O)O)C(=O)O)C(C)C` [Example 33, N-epsilon37-[2-(2-{2-[2-(2-{2-[(S)-4-carboxy-4-(17-carboxy-heptadecanoylamino)-butyrylamino]-ethoxy}-ethoxy)-acetylamino]-ethoxy}-ethoxy)-acetyl]-[Aib8,Glu22, Arg26,Arg34, Aib35, Lys37]GLP-1-(7-37)] (H-H[Aib]EGTFTSDVSSYLEEQAAREFIAWLVR[Aib]RK([AEEA-AEEA-γGlu-C18 diacid])-OH) had an EC50 of 100 to 150 nM.

`CC[C@H](C)[C@H](NC(=O)[C@H](Cc1ccccc1)NC(=O)[C@H](CCC(=O)O)NC(=O)[C@H](CCCNC(=N)N)NC(=O)[C@@H](NC(=O)[C@H](C)NC(=O)[C@H](CCC(N)=O)NC(=O)[C@H](CCC(=O)O)NC(=O)[C@H](CCC(=O)O)NC(=O)[C@H](CC(C)C)NC(=O)[C@H](Cc1ccc(O)cc1)NC(=O)[C@H](CO)NC(=O)[C@H](CO)NC(=O)[C@@H](NC(=O)[C@H](CC(=O)O)NC(=O)[C@H](CO)NC(=O)[C@@H](NC(=O)[C@H](Cc1ccccc1)NC(=O)[C@@H](NC(=O)CNC(=O)[C@H](CCC(=O)O)NC(=O)C(C)(C)NC(=O)[C@@H](N)Cc1c[nH]cn1)[C@@H](C)O)[C@@H](C)O)C(C)C)C(C)C)C(=O)N[C@@H](C)C(=O)N[C@@H](CCCCNC(=O)COCCOCCNC(=O)COCCOCCNC(=O)CC[C@H](NC(=O)CCCCCCCCCCCCCCCCC(=O)O)C(=O)O)C(=O)N[C@@H](CC(C)C)C(=O)N[C@H](C(=O)N[C@@H](CCCCN)C(=O)N[C@@H](CCCCN)C(=O)N[C@@H](CCCCN)C(N)=O)C(C)C` [Example 36, N-epsilon31-[2-(2-{2-[2-(2-{2-[(S)-4-Carboxy-4-(17-carboxyheptadecanoylamino)butyrylamino]ethoxy}ethoxy)acetylamino]ethoxy}ethoxy)acetyl][Aib8,Glu22,Val25,Arg26,Lys31,Lys35,Lys36]GLP-1-(7-36) amide] (H-H[Aib]EGTFTSDVSSYLEEQAVREFIAK([AEEA-AEEA-γGlu-C18 diacid])LVKKK-NH2): the EC50 fell in the range of 400 to 800 nM.

In turn, `CC[C@H](C)[C@H](NC(=O)[C@H](Cc1ccccc1)NC(=O)[C@H](CCC(=O)O)NC(=O)[C@H](CCCNC(=N)N)NC(=O)[C@@H](NC(=O)[C@H](C)NC(=O)[C@H](CCC(N)=O)NC(=O)[C@H](CCC(=O)O)NC(=O)[C@H](CCC(=O)O)NC(=O)[C@H](CC(C)C)NC(=O)[C@H](Cc1ccc(O)cc1)NC(=O)[C@H](CO)NC(=O)[C@H](CO)NC(=O)[C@@H](NC(=O)[C@H](CC(=O)O)NC(=O)[C@H](CO)NC(=O)[C@@H](NC(=O)[C@H](Cc1ccccc1)NC(=O)[C@@H](NC(=O)CNC(=O)[C@H](CCC(=O)O)NC(=O)C(C)(C)NC(=O)[C@@H](N)Cc1c[nH]cn1)[C@@H](C)O)[C@@H](C)O)C(C)C)C(C)C)C(=O)N[C@@H](C)C(=O)N[C@@H](CCCCNC(=O)COCCOCCNC(=O)COCCOCCNC(=O)CC[C@H](NC(=O)CCCCCCCCCCCCCCCCC(=O)O)C(=O)O)C(=O)N[C@@H](CC(C)C)C(=O)N[C@H](C(=O)N[C@@H](CNC(=O)CN(CC(=O)O)CC(=O)O)C(N)=O)C(C)C` [Example 37, N-epsilon31-{2-(2-{2-[2-(2-{2-[4-Carboxy-4-(17-carboxy-heptadecanoylamino)butyrylamino]ethoxy}ethoxy)acetylamino]ethoxy}ethoxy)acetyl}-N-beta34-(2-(bis-carboxymethylamino)acetyl)[Aib8,Glu22,Val25,Arg26,Lys31, Dap34] GLP-1(7-34) amide] (H-H[Aib]EGTFTSDVSSYLEEQAVREFIAK([AEEA-AEEA-γGlu-C18 diacid])LV[Dap](NTA)-NH2) came in with an EC50 of 150 to 200 nM.

The target of a further assay is T1, human GLP-1 receptor (Homo sapiens, UniProt P43220).
T1 construct: expressed in transfected cells; host or cells: BHK467-12A (tk-ts13) baby hamster kidney cells; purified plasma membranes
T1 sequence (P43220 24-463): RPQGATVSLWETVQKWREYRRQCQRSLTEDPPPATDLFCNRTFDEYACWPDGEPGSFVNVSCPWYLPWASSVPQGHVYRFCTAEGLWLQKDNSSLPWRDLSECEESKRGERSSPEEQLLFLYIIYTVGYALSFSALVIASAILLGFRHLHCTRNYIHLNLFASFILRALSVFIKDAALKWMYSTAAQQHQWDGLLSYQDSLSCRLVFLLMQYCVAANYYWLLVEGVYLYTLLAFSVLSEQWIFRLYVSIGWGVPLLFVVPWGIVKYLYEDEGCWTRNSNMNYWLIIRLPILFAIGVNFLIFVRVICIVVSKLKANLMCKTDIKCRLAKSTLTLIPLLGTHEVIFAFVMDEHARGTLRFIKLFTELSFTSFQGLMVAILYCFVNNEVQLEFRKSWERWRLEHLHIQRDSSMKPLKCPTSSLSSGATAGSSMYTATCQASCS
In words: Stimulation of cAMP formation in a cell line expressing the cloned human GLP-1 receptor. Format: biochemical. The settings on record: cAMP production, purified plasma membranes from BHK467-12A (tk-ts13), AlphaScreen cAMP Assay Kit; read-out: Potency [EC50/nM]. A general note: Changes in cAMP serve as a functional read-out for many G protein-coupled receptors.
Experimental: A stable transfected cell line has been prepared at NN A/S, Denmark, and a high expressing clone was selected for screening. The cells were grown at 5% CO2 in DMEM, 5% FCS, 1% Pen/Strep (Penicillin/Streptomycin) and 0.5 mg/ml of the selection marker G418.
Cells at approximate 80% confluence were washed 2× with PBS (Phosphate Buffered Saline) and harvested with Versene (aqueous solution of the tetrasodium salt of ethylenediaminetetraacetic acid), centrifuged 5 min at 1000 rpm and the supernatant removed. The additional steps were all made on ice. […] Suspension in Buffer 2, homogenization and centrifugation was repeated once and the membranes were resuspended in Buffer 2 and ready for further analysis or stored at −80° C.
The functional receptor assay was carried out by measuring the peptide induced cAMP production by The AlphaScreen Technology. […] The capture of cAMP is achieved by using a specific antibody conjugated to acceptor beads. Formed cAMP was counted and measured at a AlphaFusion Microplate Analyzer. The EC50 values were calculated using the Graph-Pad Prisme software (version 5).
On to `CC[C@H](C)[C@H](NC(=O)[C@H](Cc1ccccc1)NC(=O)[C@H](CCC(=O)O)NC(=O)[C@H](CCCNC(=N)N)NC(=O)[C@H](C)NC(=O)[C@H](C)NC(=O)[C@H](CCC(N)=O)NC(=O)[C@H](CCC(=O)O)NC(=O)[C@H](CCC(=O)O)NC(=O)[C@H](CC(C)C)NC(=O)[C@H](Cc1ccc(O)cc1)NC(=O)[C@H](CO)NC(=O)[C@H](CO)NC(=O)[C@@H](NC(=O)[C@H](CC(=O)O)NC(=O)[C@H](CO)NC(=O)[C@@H](NC(=O)[C@H](Cc1ccccc1)NC(=O)[C@@H](NC(=O)CNC(=O)[C@H](CCC(=O)O)NC(=O)[C@H](C)NC(=O)CCc1c[nH]cn1)[C@@H](C)O)[C@@H](C)O)C(C)C)C(=O)N[C@@H](CCC(=O)O)C(=O)N[C@@H](Cc1c[nH]c2ccccc12)C(=O)N[C@@H](CC(C)C)C(=O)N[C@H](C(=O)N[C@@H](CCCNC(=N)N)C(=O)NCC(=O)N[C@@H](CCCNC(=N)N)C(=O)N[C@@H](CCCCNC(=O)COCCOCCNC(=O)COCCOCCNC(=O)CC[C@H](NC(=O)[C@H]1CC[C@H](CNC(=O)CCCCCCCCCCCCCCCCCCC(=O)O)CC1)C(=O)O)C(=O)O)C(C)C` [Example 10, N-epsilon37-[2-(2-{2-[2-(2-{2-[(S)-4-Carboxy-4-({trans-4-[(19-carboxy-nonadecanoylamino)methyl]cyclohexanecarbonyl}amino)butyrylamino]ethoxy}ethoxy)acetylamino]ethoxy}ethoxy)acetyl][DesaminoHis7,Glu22,Arg26,Glu30,Arg34,Lys37]GLP-1-(7-37)] (Desaminohistidyl-AEGTFTSDVSSYLEEQAAREFIEWLVRGRK([AEEA-AEEA-γGlu-Trx-C20 diacid])-OH), for which the EC50 amounted to 0.66 nM.

Regarding `CCCCCCCCCCCCCCCCOCCOCCOCCOCCOCCOCCC(=O)NCCCC[C@H](NC(=O)[C@H](CCCNC(=N)N)NC(=O)CNC(=O)[C@H](CCCNC(=N)N)NC(=O)[C@@H](NC(=O)[C@H](CC(C)C)NC(=O)[C@H](Cc1c[nH]c2ccccc12)NC(=O)[C@H](C)NC(=O)[C@@H](NC(=O)[C@H](Cc1ccccc1)NC(=O)[C@H](CCC(=O)O)NC(=O)[C@H](CCCNC(=N)N)NC(=O)[C@H](C)NC(=O)[C@H](C)NC(=O)[C@H](CCC(N)=O)NC(=O)[C@H](CCC(=O)O)NC(=O)[C@H](CCC(=O)O)NC(=O)[C@H](CC(C)C)NC(=O)[C@H](Cc1ccc(O)cc1)NC(=O)[C@H](CO)NC(=O)[C@H](CO)NC(=O)[C@@H](NC(=O)[C@H](CC(=O)O)NC(=O)[C@H](CO)NC(=O)[C@@H](NC(=O)[C@H](Cc1ccccc1)NC(=O)[C@@H](NC(=O)CNC(=O)[C@H](CCC(=O)O)NC(=O)[C@H](C)NC(=O)CCc1c[nH]cn1)[C@@H](C)O)[C@@H](C)O)C(C)C)[C@@H](C)CC)C(C)C)C(N)=O` [Example 16, N-epsilon37 (3-((2-(2-(2-(2-(2-Hexadecyloxyethoxy)ethoxy)ethoxy)ethoxy)ethoxy))propionyl)[DesaminoHis7,Glu22,Arg26,Arg34,Lys37]GLP-1(7-37)-amide], the EC50 turned out to be 0.15 nM.

The values above are taken from patent publication US9409966B2, “Glucagon-like peptide-1 derivatives and their pharmaceutical use” (priority 2007, dated 2016).
